Assay results: patent US20170202936A1, “Identification, Optimization And Use Of Cryptic HLA-B7 Epitopes For Immunotherapy” (VAXON BIOTECH, priority 2006, published 2017)
“Also recorded” adds a separate entry of the source. No end group written: not given here.

Tests used:
[1] = tested on: SK-MES-1, HBL-100, SW-480 and HSS human tumor cell lines; test: Cytotoxicity of peptide-induced human CTL against human tumor cell lines; assay type: cell-based; conditions: one responding donor
Description: Cells. HLA-B*0702 transfected murine RMA-B7 and human T2-B7 cells were previously described (Rohrlich et al., 2003). COS-7 and WEHI-164 clone 13 cells were provided by F. Jotereau (INSERM 463, Nantes, France). The HLA-B*0702 positive SK-MES-1 (lung cancer), HBL-100 (breast cancer), and the HLA-B*0702 negative SW-480 (colon cancer) and HSS (myeloma) cell lines were used as targets of human CTL. All cell lines were grown in FCS 10% supplemented RPMI1640 culture medium.
(§1) Generation of CTL from human PBMC. PBMC were collected by leukapheresis from healthy HLA-B*0702 volunteers. Dendritic cells (DC) were produced from adherent cells cultured for seven days (2×10^6 cells/ml) in the presence of 500 IU/ml GM-CSF and 500 IU/ml IL-4 (R&D Systems, Minneapolis, Minn.) in complete medium (RPMI-1640 supplemented with 10% heat inactivated human AB serum, […] L-Glutamine and antibiotics). On day seven, DC were pulsed with 10 μM peptides for 2 hrs; maturation agents Poly I:C (Sigma, Oakville, Canada) at 100 ng/ml and anti-CD40 mAb (clone G28-5, ATCC, Manassas, Va.) at 2 μg/ml were added in the culture and DCs were incubated at 37° C. overnight or up to 48 hours. Mature DC were then irradiated (3500 rads). […]
(§2) Cytotoxic assay. […] Percentage of specific lysis was determined as: % Lysis=(Experimental Release−Spontaneous Release)/(Maximal Release−Spontaneous Release)×100.

T2-B7 targets = test: Generation of CTL from human PBMC of healthy donors, cytotoxicity against peptide-loaded T2-B7 targets; assay type: cell-based; conditions: one responding donor
Description: as §1, with “rads). CD8+ cells were purified by positive selection with CD8 MicroBeads (Miltenyi Biotec, Auburn, Calif.) according to the manufacturer's instructions. 2×10^5 CD8^+ cells+6×10^4 CD8^− cells were stimulated with 2×10^4 peptide pulsed DC in complete culture medium supplemented with 1000 IU/ml IL-6 and 5 IU/ml IL-12 (R&D Systems, Minneapolis, Minn.) in round-bottomed 96 well plates.” for “rads).”
as §2

[2] = tested on: HLA-B*0702 transgenic mice; test: CTL induction in vivo in HLA-B*0702 transgenic mice (immunogenicity, cytotoxic assay on peptide-loaded RMA-B7 targets); set-up: key: + for immunogenicity or native peptide cross recognition means that the peptide induced a specific response in at least one HLA-B*0702 transgenic mouse, able to recognized the corresponding native peptide; conditions: Table V
Description: (§3) CTL Induction in vivo in HLA-B*0702 Transgenic Mice. Mice were injected subcutaneously with 100 μg of peptide emulsified in Incomplete Freund's Adjuvant (IFA) in the presence of 150 μg of the I-A^b restricted HBVcore128 T helper epitope ([…], SEQ ID NO: 10). After 11 days, 5×10^7 spleen cells were stimulated in vitro with peptide (10 μM). On day 6 of culture, the bulk responder populations were tested for specific cytotoxicity.
(§4) Cytotoxic assay. Targets were labelled with 100 μCi of Cr^51 for 60 min, plated in 96-well V-bottomed plates (3×10^3 cell/well in 100 μL of RPMI 1640 medium) and, when necessary, pulsed with peptides (1 μM) at 37° C. for 2 hours. Effectors were then added in the wells and incubated at 37° C. for 4 hours. Percentage of specific lysis was determined as: % Lysis=(Experimental Release−Spontaneous Release)/(Maximal Release−Spontaneous Release)×100.
(§5) HLA-B7 transgenic mice were vaccinated with the selected peptides, and eleven days later, their spleen cells were in vitro stimulated with the peptide.

[3] = tested on: HLA-B*0702 transgenic mice; test: as above; set-up: key: +: means that a specific immunoresponse was generated at least one HLA-B*0702 transgenic mice; conditions: Table IV
Description: as §3, §4, §5

[4] = tested on: HLA-B*0702 transgenic mice; test: as above; set-up: key to Corresponding native peptide cross-reconnaissance: + for immunogenicity or native peptide cross recognition means that the peptide induced a specific response in at least one HLA-B*0702 transgenic mouse, able to recognized the corresponding native peptide; conditions: for Corresponding native peptide cross-reconnaissance: CTL induced in HLA-B*0702 transgenic mice; for Immunogenicity: specific CTL immune response (in words) / Recognition of the native peptide by CTL generated with the optimized peptide (in words): HLA-B*0702 transgenic mice
Description: as §3, §4, §5

HLA-B*0702 = target: T1, HLA-B*0702 (Homo sapiens, UniProt P01889); test: Measurement of peptide relative affinity to HLA-B*0702 (T2-B7 cells, ME-1 mAb staining); assay type: binding; conditions: for RA (relative affinity for HLA-B*0702): T2-B7 cells, 16 hours 37° C., ratio of concentrations inducing 20% HLA-B*0702 expression vs reference peptide CMV265-274; for RA: class symbols, Table IV
T1 construct: expressed in transfected cells; host or cells: human T2 cells transfected with HLA-B*0702 (T2-B7)
Description: The affinity of a peptide for HLA-B*0702 can be determined by methods known in the art, for instance by the assay described by Rohrlich et al., 2003. Results are expressed as relative affinity (RA) when compared to a reference peptide. […] Peptides with RA greater than 10 are therefore considered to be cryptic peptides (or epitopes).
Measurement of Peptide Relative Affinity to HLA-B*0702. The protocol used has been described previously (Rohrlich et al., 2003). Briefly, T2-B7 cells were incubated at 37° C. for 16 hours with peptides concentrations ranging from 100 μM to 0.1 μM, and then stained with ME-1 monoclonal antibody (mAb) to quantify the surface expression of HLA-B*0702. For each peptide concentration, the HLA-B*0702 specific staining was calculated as the percentage of staining obtained with 100 μM of the reference peptide CMV265-274 (R10V; […], SEQ ID NO: 9). The relative affinity (RA) was determined as: RA=(Concentration of each peptide that induces 20% of HLA-B*0702-expression/Concentration of the reference peptide that induces 20% of HLA-B*0702 expression).

RMA-B7 targets = test: Lysis of RMA-B7 targets loaded with decreasing peptide concentrations by murine CTL; assay type: cell-based; conditions: CTL from mice immunized with TERT444A1, restimulated in vitro with native TERT444, read-out: Half maximal lysis of peptide loaded targets
Description: as §3, §4

## APRCRAVRSL [TERT4]
[1]
  Cytotoxicity of human CTL against human tumor cell lines: killed the HLA-B*0702 TERT+SK-MES-1 and HBL-100 but not the HLA-B*0702-TERT+SW-480 and HSS human tumor cell lines
T2-B7 targets
  Cytotoxicity of human CTL against peptide-loaded T2-B7 targets: killed T2-B7 targets presenting TERT4 but not T2-B7 cells presenting the irrelevant Nef peptide

## APKHSDCLA (Her-2/neu246A1 optimized peptide derived from the cryptic peptide of SEQ ID NO4) [Her2/neu246A1]
[2]
  Immunogenicity: +
[3]
  Immunogenicity: +
[4]
  Corresponding native peptide cross-reconnaissance: +

## EPFTKAEML (MAGE-A121.2 antigen peptide)
HLA-B*0702
  Affinity for HLA-B*0702 (in words): low affinity
  RA (relative affinity for HLA-B*0702): >10

## GPKHSDCLA (HER-2/neu246 HLA-B*0702 restricted cryptic epitope) [Her2/neu246]
[4]
  Immunogenicity: specific CTL immune response (in words): not immunogenic

## APRASSPLL (a HLA-B*0702 restricted peptide)
[3]
  Immunogenicity: +

## APRSLGLEL (HSP70_397R3L9 optimized peptide) [Hsp70397R3L9]
HLA-B*0702
  Affinity for HLA-B*0702 (in words): strong affinity
  RA: ++ (++ = RA < 1)
[3]
  Immunogenicity: +
[4]
  Immunogenicity: specific CTL immune response (in words): induced an immune response in the majority of vaccinated mice
  Recognition of the native peptide by CTL generated with the optimized peptide (in words): recognized the optimized peptide but not the corresponding native peptide

## APRSPLAPS (HER-2/neu1069 HLA-B*0702 restricted cryptic epitope) [Her2/neu1069]
[4]
  Immunogenicity: specific CTL immune response (in words): not immunogenic

## YPEEISSMVL (peptide of Hsp70_115) [Hsp70 115]
HLA-B*0702
  Affinity for HLA-B*0702 (in words): low affinity; also recorded: non binders
[4]
  Immunogenicity: specific CTL immune response (in words): Only the high affinity TERT4 was immunogenic

## APKANKEIL (Her-2/neu760A1 optimized peptide derived from the cryptic peptide of SEQ ID NO3) [Her2/neu760A1]
[2]
  Immunogenicity: +
[3]
  Immunogenicity: +
[4]
  Corresponding native peptide cross-reconnaissance: +

## APRVSIRLPL (EphA2)
HLA-B*0702
  RA: ++ (++ = RA < 1)

## APLSLGLET (Hsp70 397 antigen peptide)
HLA-B*0702
  Affinity for HLA-B*0702 (in words): low affinity
  RA (relative affinity for HLA-B*0702): >10
[4]
  Immunogenicity: specific CTL immune response (in words): Only the high affinity TERT4 was immunogenic

## APRALVETL (MAGE-A antigen peptide)
HLA-B*0702
  RA: + (+ = 1 < RA < 10)
[3]
  Immunogenicity: +

## APREISSMVL (HSP70_115A1R3 optimized peptide) [Hsp70115A1R3]
HLA-B*0702
  Affinity for HLA-B*0702 (in words): strong affinity
  RA: + (+ = 1 < RA < 10)
[3]
  Immunogenicity: +
[4]
  Immunogenicity: specific CTL immune response (in words): induced an immune response in the majority of vaccinated mice
  Recognition of the native peptide by CTL generated with the optimized peptide (in words): recognized the optimized peptide but not the corresponding native peptide

## SPKANKEIL (HER-2/neu760 HLA-B*0702 restricted cryptic epitope) [Her2/neu760]
[4]
  Immunogenicity: specific CTL immune response (in words): not immunogenic

## APRMPEAAL (a HLA-B*0702 restricted peptide)
[3]
  Immunogenicity: +

## APEEISSMVL (HSP70_115A1 optimized peptide) [Hsp70 115A1]
HLA-B*0702
  RA (relative affinity for HLA-B*0702): >10

## APVTKAEML (MAGE-121.1 A1 optimized peptide) [MAGE-121.1/A1]
HLA-B*0702
  RA (relative affinity for HLA-B*0702): >10

## EPVTKAEML [MAGE-A121.1]
HLA-B*0702
  Affinity for HLA-B*0702 (in words): low affinity
  RA (relative affinity for HLA-B*0702): >10

## APRQLGREL (a HLA-B*0702 restricted peptide)
[3]
  Immunogenicity: +

## APRMHCAVDL (EphA2)
HLA-B*0702
  RA: ++ (++ = RA < 1)
[3]
  Immunogenicity: +

## APRRRLGCEL (TERT antigen peptide)
HLA-B*0702
  RA: + (+ = 1 < RA < 10)
[3]
  Immunogenicity: +

## APREYVNAL (Her-2/neu)
HLA-B*0702
  RA: + (+ = 1 < RA < 10)
[3]
  Immunogenicity: +

## DPRRLVQLL [TERT444]
HLA-B*0702
  Affinity for HLA-B*0702 (in words): low affinity
  RA (relative affinity for HLA-B*0702): >10
RMA-B7 targets
  EC50: 5.5 nM
[4]
  Immunogenicity: specific CTL immune response (in words): Only the high affinity TERT4 was immunogenic; also recorded: not immunogenic

## APRTKAEML (MAGE-121.1 A1R3 optimized peptide)
HLA-B*0702
  RA: + (+ = 1 < RA < 10)
[3]
  Immunogenicity: +

## APRGVPQIEL (a HLA-B*0702 restricted peptide)
[3]
  Immunogenicity: +

## APRSPLAPL (Her-2/neu1069L9 optimized peptide derived from the cryptic peptide of SEQ ID NO2) [Her2/neu1069L9]
[2]
  Immunogenicity: +
HLA-B*0702
  RA: ++ (++ = RA < 1)
[3]
  Immunogenicity: +
[4]
  Corresponding native peptide cross-reconnaissance: +

## APRPWTPCL (a HLA-B*0702 restricted peptide)
HLA-B*0702
  RA: + (+ = 1 < RA < 10)
[3]
  Immunogenicity: +

## EPITKAEIL (MAGE-A121.4 antigen peptide)
HLA-B*0702
  Affinity for HLA-B*0702 (in words): low affinity
  RA (relative affinity for HLA-B*0702): >10

## YPVTNAVITV (Hsp70 137(10) antigen peptide) [Hsp70 137 (10)]
HLA-B*0702
  Affinity for HLA-B*0702 (in words): low affinity; also recorded: non binders
[4]
  Immunogenicity: specific CTL immune response (in words): Only the high affinity TERT4 was immunogenic
